Test results as given in patent US10208033B2, “β-carboline, dihydro-β-carboline and tetrahydro-β-carboline alkaloid derivatives and preparation methods same and use in aspects of preventing and treating plant viruses, fungicides and insecticides” (NANKAI UNIVERSITY, priority 2013, dated 2019).
Structures can show the parent of a compound that is named as a salt.

Columns and labels:
[1] = tested on: tobacco mosaic virus (TMV); assay: Anti-TMV in vitro effect (half-leaf soaking); type: cell-based, tobacco mosaic virus (host Nicotiana tabacum L.cv.Xanthi NN); conditions: for inhibition at 100 µg/mL / inhibition at 500 µg/mL: Tobacco mosaic virus, read-out: Relative inhibition rate (%) In vitro activity
[2] = tested on: tobacco mosaic virus (TMV); assay: Anti-TMV in vivo inactivation; design: species or system tobacco mosaic virus (host Nicotiana tabacum L.cv.Xanthi NN); conditions: for inhibition at 100 µg/mL / inhibition at 500 µg/mL: Tobacco mosaic virus, read-out: Relative inhibition rate (%) In vivo inactivation
[3] = tested on: tobacco mosaic virus (TMV); assay: Anti-TMV in vivo therapeutic effect; design: species or system tobacco mosaic virus (host Nicotiana tabacum L.cv.Xanthi NN); conditions: for inhibition at 100 µg/mL / inhibition at 500 µg/mL: Tobacco mosaic virus, read-out: Relative inhibition rate (%) In vivo therapy
[4] = tested on: tobacco mosaic virus (TMV); assay: Anti-TMV in vivo protective effect; design: species or system tobacco mosaic virus (host Nicotiana tabacum L.cv.Xanthi NN); conditions: for inhibition at 100 µg/mL / inhibition at 500 µg/mL: Tobacco mosaic virus, read-out: Relative inhibition rate (%) In vivo protection
cucumber fusarium wilt = assay: Fungicidal (bactericidal) activity in vitro, PDA colony diameter; type: cell-based; conditions: 50 mg/kg; for inhibition of growth at 50 mg/kg: Fusarium, 96 h
Cercospora arachidicola = assay: as above; type: cell-based; conditions: 50 mg/kg; for inhibition of growth at 50 mg/kg: Mycosphaerella arachidis, 96 h
Macrophoma kawatsukai = assay: as above; type: cell-based; conditions: 50 mg/kg
Alternaria solani = assay: as above; type: cell-based; conditions: 50 mg/kg; for inhibition of growth at 50 mg/kg: Alternaria solani, 96 h
Fusarium graminearumt = assay: microbe, parasite or virus in culture; type: cell-based; conditions: for inhibition of growth at 50 mg/kg: Fusarium, 96 h, read-out: Bactericidal activity (%) Fusarium graminearumt
potato late blight = assay: microbe, parasite or virus in culture; type: cell-based; conditions: for inhibition of growth at 50 mg/kg: Phytophthora infestans, 96 h, read-out: Bactericidal activity (%) potato late blight
Sclerotinia scleotiorum = assay: Fungicidal (bactericidal) activity in vitro, PDA colony diameter; type: cell-based; conditions: 50 mg/kg; for inhibition of growth at 50 mg/kg: Sclerotinia, 96 h
Botrytis cinerea = assay: as above; type: cell-based; conditions: 50 mg/kg; for inhibition of growth at 50 mg/kg: Botrytis cinerea, 96 h
Rhizoctonia solani = assay: as above; type: cell-based; conditions: 50 mg/kg; for inhibition of growth at 50 mg/kg: Rhizoctonia solani, 96 h
Phytophthora capsici = assay: as above; type: cell-based; conditions: 50 mg/kg; for inhibition of growth at 50 mg/kg: Phytophthora capsici, 96 h
Fusarium fujikuroi = assay: as above; type: cell-based; conditions: 50 mg/kg; for inhibition of growth at 50 mg/kg: Fusarium fujikuroi, 96 h
Rhizoctonia cereali = assay: as above; type: cell-based; conditions: 50 mg/kg; for inhibition of growth at 50 mg/kg: Rhizoctonia, 96 h
Bipolaria maydis = assay: organism not typed; type: cell-based; conditions: for inhibition at 50 mg/kg: read-out: Bactericidal activity (%) Bipolaria maydis
[5] = tested on: Colletotrichum orbiculare; assay: Fungicidal (bactericidal) activity in vitro, PDA colony diameter; type: cell-based; conditions: 50 mg/kg; for inhibition of growth at 50 mg/kg: Colletotrichum orbiculare, 96 h
armyworms = type: in vivo; conditions: concentration 600 mg/kg
cotton bollworms = assay: whole plant or invertebrate; conditions: for mortality at 600 mg/kg: Helicoverpa armigera, in Gossypium hirsutum, read-out: Cotton bollworm Mortality (%)
Procedure: Experimental method of cotton bollworms: feed and drug mixing method: measure 3 mL of prepared solution and add it to about 27 g of newly prepared feed, thereby obtaining needed concentration through dilution by 10 times.

mosquito larvae = assay: whole plant or invertebrate; conditions: 24 h; for mortality at 10 mg/kg: Culex pipiens, read-out: Mosquito larvae Mortality (%)
Procedure, shortened: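 Compound dissolved in acetone (or other solvent) to a 1000 ppm stock and diluted in water to 5 ppm. Ten Culex pipiens pallens larvae at the start of the fourth instar, laboratory-reared, added per beaker; solvent-only aqueous control.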

corn borers [6] = assay: whole plant or invertebrate; conditions: read-out: Corn borer Mortality (%)
corn borers [7] = conditions: concentration 600 mg/kg

Cc1nccc2c1[nH]c1cc(OC(=O)NC(C)C)ccc12 [Ia-5, isopropylamino formate (1-methylpyridino [3,4-b]indol-7)-ester]
inhibition at 100 µg/mL ([1]; treatment dose 100 μg/mL): 0%
inhibition at 500 µg/mL ([1]; treatment dose 500 μg/mL): 31.3%
inhibition at 100 µg/mL ([2]; treatment dose 100 μg/mL): 0%
inhibition at 500 µg/mL ([2]; treatment dose 500 μg/mL): 29.5%
inhibition at 100 µg/mL ([3]; treatment dose 100 μg/mL): 0%
inhibition at 500 µg/mL ([3]; treatment dose 500 μg/mL): 32.7%
inhibition at 100 µg/mL ([4]; treatment dose 100 μg/mL): 5.8%
inhibition at 500 µg/mL ([4]; treatment dose 500 μg/mL): 40.3%
inhibition of growth at 50 mg/kg (cucumber fusarium wilt): 34.6%
inhibition of growth at 50 mg/kg (Cercospora arachidicola): 53.9%
inhibition at 50 mg/kg (Macrophoma kawatsukai): 2.4%
inhibition of growth at 50 mg/kg (Alternaria solani): 21.1%
inhibition of growth at 50 mg/kg (Fusarium graminearumt): 23.8%
inhibition of growth at 50 mg/kg (potato late blight): 18.2%
inhibition of growth at 50 mg/kg (Sclerotinia scleotiorum): 9.8%
inhibition of growth at 50 mg/kg (Botrytis cinerea): 0%
inhibition of growth at 50 mg/kg (Rhizoctonia solani): 6.6%
inhibition of growth at 50 mg/kg (Phytophthora capsici): 25%
inhibition of growth at 50 mg/kg (Fusarium fujikuroi): 14.3%
inhibition of growth at 50 mg/kg (Rhizoctonia cereali): 36.8%
inhibition at 50 mg/kg (Bipolaria maydis): 22.7%
inhibition of growth at 50 mg/kg [5]: 39.3%
Armyworm Mortality (%) (armyworms): 10%
mortality at 600 mg/kg (cotton bollworms): 15%
mortality at 10 mg/kg (mosquito larvae): 30%
mortality at 600 mg/kg (corn borers [6]): 10%

Cc1nccc2c1[nH]c1cc(OC(=O)[C@@H](NC(=O)OCc3ccccc3)C(C)C)ccc12 [Ia-9]
inhibition at 100 µg/mL ([1]; treatment dose 100 μg/mL): 0%
inhibition at 500 µg/mL ([1]; treatment dose 500 μg/mL): 20.7%
inhibition at 100 µg/mL ([2]; treatment dose 100 μg/mL): 0%
inhibition at 500 µg/mL ([2]; treatment dose 500 μg/mL): 13.6%
inhibition at 100 µg/mL ([3]; treatment dose 100 μg/mL): 0%
inhibition at 500 µg/mL ([3]; treatment dose 500 μg/mL): 12.5%
inhibition at 100 µg/mL ([4]; treatment dose 100 μg/mL): 0%
inhibition at 500 µg/mL ([4]; treatment dose 500 μg/mL): 19.6%
inhibition of growth at 50 mg/kg (cucumber fusarium wilt): 38.5%
inhibition of growth at 50 mg/kg (Cercospora arachidicola): 61.5%
inhibition at 50 mg/kg (Macrophoma kawatsukai): 78.6%
inhibition of growth at 50 mg/kg (Alternaria solani): 36.8%
inhibition of growth at 50 mg/kg (Fusarium graminearumt): 35.7%
inhibition of growth at 50 mg/kg (potato late blight): 45.5%
inhibition of growth at 50 mg/kg (Sclerotinia scleotiorum): 13.7%
inhibition of growth at 50 mg/kg (Botrytis cinerea): 51.5%
inhibition of growth at 50 mg/kg (Rhizoctonia solani): 52.6%
inhibition of growth at 50 mg/kg (Phytophthora capsici): 50%
inhibition of growth at 50 mg/kg (Fusarium fujikuroi): 21.4%
inhibition of growth at 50 mg/kg (Rhizoctonia cereali): 84.2%
inhibition at 50 mg/kg (Bipolaria maydis): 36.4%
inhibition of growth at 50 mg/kg [5]: 50%
Armyworm Mortality (%) (armyworms): 5%
mortality at 600 mg/kg (cotton bollworms): 20%
mortality at 10 mg/kg (mosquito larvae): 25%
mortality at 600 mg/kg (corn borers [6]): 5%

CCCCCC(=O)NNC(=O)[C@@H]1Cc2c([nH]c3ccccc23)[C@H](C)N1 [Id-5, (1S, 3S)—N′—N-Hexanoyl-1-methyl-2,3,4,9-tetrahydropyridino [3,4-b] indol-3-formylhydrazine]
Relative inhibition rate (%) In vitro activity ([1]; treatment dose 100 μg/mL): 0%
Relative inhibition rate (%) In vitro activity ([1]; treatment dose 500 μg/mL): 32.1%
Relative inhibition rate (%) In vivo inactivation ([2]; treatment dose 100 μg/mL): 0%
Relative inhibition rate (%) In vivo inactivation ([2]; treatment dose 500 μg/mL): 31.5%
Relative inhibition rate (%) In vivo therapy ([3]; treatment dose 100 μg/mL): 0%
Relative inhibition rate (%) In vivo therapy ([3]; treatment dose 500 μg/mL): 27.3%
Relative inhibition rate (%) In vivo protection ([4]; treatment dose 100 μg/mL): 0%
Relative inhibition rate (%) In vivo protection ([4]; treatment dose 500 μg/mL): 30.9%
Bactericidal activity (%) Cucumber fusarium wilt (cucumber fusarium wilt): 22.7%
Bactericidal activity (%) Cercospora arachidicola (Cercospora arachidicola): 45.5%
Bactericidal activity (%) Macrophoma kawatsukai (Macrophoma kawatsukai): 63.6%
Bactericidal activity (%) Alternaria solani (Alternaria solani): 23.8%
Bactericidal activity (%) Fusarium graminearumt (Fusarium graminearumt; 50 mg/kg): 46.2%
Bactericidal activity (%) potato late blight (potato late blight): 26.1%
Bactericidal activity (%) Sclerotinia scleotiorum (Sclerotinia scleotiorum): 26.9%
Bactericidal activity (%) Botrytis cinerea (Botrytis cinerea): 66.7%
Bactericidal activity (%) Rhizoctonia solani (Rhizoctonia solani): 1.4%
Bactericidal activity (%) Phytophthora capsici (Phytophthora capsici): 21.2%
Bactericidal activity (%) Fusarium fujikuroi (Fusarium fujikuroi): 29.4%
Bactericidal activity (%) Rhizoctonia cereali (Rhizoctonia cereali): 29.7%
Bactericidal activity (%) Bipolaria maydis (Bipolaria maydis; 50 mg/kg): 32.0%
Bactericidal activity (%) Colletotrichum orbiculare [5]: 28.0%
Armyworm Mortality (%) (armyworms): 5%
Cotton bollworm Mortality (%) (cotton bollworms; concentration 600 mg/kg): 30%
Mosquito larvae Mortality (%) (mosquito larvae; concentration 10 mg/kg): 10%
Corn borer Mortality (%) (corn borers [7]): 25%

COc1ccc2c3c([nH]c2c1)C(C)NCC3 (stereo not drawn) [Tetrahydroharmine]
inhibition at 100 µg/mL ([1]; treatment dose 100 μg/mL): 28.7%
inhibition at 500 µg/mL ([1]; treatment dose 500 μg/mL): 58.2%
inhibition at 100 µg/mL ([2]; treatment dose 100 μg/mL): 26.4%
inhibition at 500 µg/mL ([2]; treatment dose 500 μg/mL): 59.8%
inhibition at 100 µg/mL ([3]; treatment dose 100 μg/mL): 27.3%
inhibition at 500 µg/mL ([3]; treatment dose 500 μg/mL): 55.5%
inhibition at 100 µg/mL ([4]; treatment dose 100 μg/mL): 24.2%
inhibition at 500 µg/mL ([4]; treatment dose 500 μg/mL): 54.6%
Armyworm Mortality (%) (armyworms): 0%
mortality at 600 mg/kg (cotton bollworms): 10%
mortality at 10 mg/kg (mosquito larvae): 15%
mortality at 600 mg/kg (corn borers [6]): 0%
